Measured values as given in patent US11173127B2, “Potato protein nanoparticles” (priority 2013, dated 2021).
“Also recorded” adds a separate entry of the source.

How the values were obtained:
Assay type in all cases: physicochemical
[1] = Effect of potato protein on solubilization and transparency (visual); conditions: for appearance / turbidity of solution: 25 mM phosphate buffer pH 2.5, without potato protein
Description: First, the effect of potato protein on solubilization and transparency of vitamin D (VD) was assessed. Two aqueous buffer solutions (25 mM phosphate buffer, pH 2.5) containing the same concentration of VD (0.1 mg/ml) were used. Only one vial (left vial of FIG. 1a) also included 1.5 mg/ml potato protein. It is clearly seen that due to the presence of the potato protein, the solution containing VD is transparent, while the one devoid of potato protein is turbid.
Second, the effect of potato protein on solubilization and transparency of omega 3 was also assessed. Specifically, two aqueous buffer solutions (25 mM phosphate buffer, pH 2.5) contained the same concentration of 0.5 ul/ml omega 3 (ethyl ester DHA) colored with Nile red, which is only pink in a hydrophobic environment. One vial (left vial of FIG. 1b) also contained 1.5 mg/ml potato protein.
Thus, the potato protein nanoparticle solubilized the hydrophobic ingredient in a uniform, transparent, manner.

[2] = Dynamic light scattering particle size distribution; conditions: VD without potato protein, 10-50 ug/ml VD, phosphate buffer 25 mM pH 2.5, bimodal distribution
Description: Dynamic light scattering (DLS) was used to evaluate size distribution of the potato protein-VD complexes.
The particle size of VD without potato protein was measured with different concentration of VD—10, 25, 35 and 50 ug/ml VD in a phosphate buffer (25 mM, pH 2.5). In all concentrations a bimodal distribution was obtained, with diameter larger than 1500 nm.
The size distributions of the VD—potato protein nano-particles were also measured at several concentrations of VD—10, 25, 35 and 50 μg/ml VD. The size distributions (FIG. 3) consisted of two fractions. The first fraction (84% by volume) comprised the small nano-particles of about 15 nm diameter, while the second fraction comprised nano-particles whose average diameter was around 80 nm.

[3] = VD retention during pasteurization at 72° C. and pH 2.5 (RP-HPLC); conditions: pH 2.5, at least 60 seconds, with 1.5 mg/ml potato protein vs without, VD 0.1 mg/ml
Description: The percentage of VD retention within the composition was assessed during pasteurization at 72° C. and pH 2.5 for up to 60 seconds, in the presence and absence of 1.5 mg/ml potato protein. VD concentration at time zero was 0.1 mg/ml. The measurements were done using RP-HPLC. The samples were kept in the dark and the vials' head spaces were filled with argon to prevent oxidation until the analysis.

[4] = VD retention at pH 2.5 and 25° C. (RP-HPLC); conditions: pH 2.5, 25° C., with 1.5 mg/ml potato protein vs without; VD 0.1 mg/ml
Description: The percentage of VD retention within the composition at pH 2.5, and 25° C. was also assessed, in the presence and absence of 1.5 mg/ml potato protein. VD concentration at time zero was 0.1 mg/ml. […] The measurements were done using RP-HPLC.

[5] = VD3 degradation under industrial pasteurization and hot-bottling conditions (88° C., 1 min); conditions: cooled 30 min to 30-35° C., pH 2.5, 100 μg/ml VD3, PP 1 mg/ml where present
Description: VD3 in phosphate buffer, and PP-VD3 nanoparticles were prepared at 1 mg/ml potato protein (PP) and 100 μg/ml VD3 at pH 2.5.
Samples (without a cap) were heated in a water bath for 1 min at 88° C. Following heat treatment, samples were capped and maintained at room temperature for 30 minutes until their temperature decreased to 30-35° C. Controls of VD3, PP and PP-VD3 nanoparticles, at pH 2.5, were extracted immediately without any heat treatment. The other samples were extracted at room temp after the above heat treatment.
VD3 was extracted and quantified using a protocol based on Haham, et al. (Haham, M., et al., Stability and bioavailability of vitamin D nanoencapsulated in casein micelles. Food & Function, 2012). The protocol, used on both aqueous solutions (with and without PP), was as follows: 1 ml of VD3-containing sample was put into a glass test tube. 3 ml of a 2:1 chloroform:methanol mixture was then added, and the tubes were vortexed for ˜20 seconds. […]
Following extraction, 1.5 ml of RP-HPLC mobile phase (methanol:acetonitrile:water 49.5:49.5:1, by volume) were added to the drying vial, given 15 minutes to equilibrate after vortexing, and then transferred to a 1.5 ml glass HPLC vial. […] In the mobile phase, VD3 has a local UV absorption maximum at 267 nm, and so the 267 nm chromatogram was used for VD3 quantification.

[6] = Simulated shelf life test at 23° C. and pH 2.5, exposed to light; conditions: pH 2.5, light
Description: PP-VD3 nanoparticles and VD3 suspensions were prepared in glass test tubes at pH 2.5, pasteurized for 1 min at 88° C. in open test tubes, and then capped, cooled and maintained at room temperature (23° C.) exposed to light, and followed with time. Samples for all shelf life tests were prepared without any preservative.
Samples of 1 ml containing 100 μg/ml VD3 in buffer and 1 mg/ml PP were prepared. The samples were individually prepared in order to perform total volume extractions, minimizing transfer/precipitation losses. Three tubes of each type were quantified immediately, to serve as control. All the remaining tubes were then pasteurized. Three tubes of each type were quantified immediately, to serve as reference. The other tubes were stored at the conditions described above. At each time point, three tubes of each type were taken from storage and their VD3 content was quantified. In all experiments, the tubes were stored covered with their lids to prevent evaporation.
Further tests that show the great advantage of the present invention in conferring exceptional stability to active ingredient is provided in FIG. 8. […] Thus, the shelf life test examined the VD3 stability at low pH (2.5) and exposure to light, during time.

SMILES | appearance / transparency of solution ([1]; 25 mM phosphate buffer pH 2.5, with 1.5 mg/ml potato protein) | appearance / turbidity of solution [1] | particle diameter (DLS) [2] | protection against heat induced degradation (VD retention) [3] | protection of VD (VD retention) [4] | VD degraded / lost by heat treatment [5] | VD degraded / lost ([6]; after one week) | post-pasteurization VD3 lost ([6]; within 24 hours)
C=C1CC[C@H](O)C/C1=C/C=C1\CCC[C@]2(C)[C@@H]([C@H](C)CCCC(C)C)CC[C@@H]12 [VD, Vitamin D3] | transparent | turbid; also recorded: much more turbid | > 1500 nm | significant protection | significant protection | 55% | almost all | 52%
CC/C=C\C/C=C\C/C=C\C/C=C\C/C=C\C/C=C\CCC(=O)OCC [omega 3, omega 3 DHA (ethyl ester)] | – | much more turbid | – | – | – | – | – | –
